The target in the assay is T1, human GPR119 (hGPR119) (Homo sapiens, UniProt Q8TDV5).
T1 construct: expressed in transfected cells
T1 sequence (Q8TDV5 1-335): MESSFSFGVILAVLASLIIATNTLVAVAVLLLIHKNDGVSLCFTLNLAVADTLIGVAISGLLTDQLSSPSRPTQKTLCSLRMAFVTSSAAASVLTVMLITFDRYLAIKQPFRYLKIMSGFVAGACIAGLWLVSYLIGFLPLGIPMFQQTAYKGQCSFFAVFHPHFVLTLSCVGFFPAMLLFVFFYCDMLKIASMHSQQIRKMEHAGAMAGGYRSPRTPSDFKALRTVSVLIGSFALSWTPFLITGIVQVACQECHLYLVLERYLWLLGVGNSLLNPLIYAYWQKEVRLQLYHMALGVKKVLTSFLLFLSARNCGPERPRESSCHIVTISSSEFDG
Briefly: cAMP accumulation assay (cAMP Gs dynamic HTRF kit). In kind it is cell-based. To be noted: CHO-K1 cells stably expressing hGPR119, 4-parameter fit; for Emax: 1 h, % activity normalized to Max/Min controls; for EC50: cAMP accumulation. In short, it runs like this: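 Read-out is HTRF 665/620 nm ratio after 1 h detection at ambient temperature, converted to % activity against positive and negative controls, EC50 and Max activity by 4-parameter fit. Compounds were titrated onto ~10,000 thawed hGPR119-CHO-K1 cells/well for 60 min at 37° C/5% CO2.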
For orientation: Changes in cAMP serve as a functional read-out for many G protein-coupled receptors.

A value given as a limit tells only on which side of the number the result lay.

By Emax is commonly meant the maximal effect, on the per cent scale that the assay sets. As usually defined, the EC50 is the concentration at which the effect is half-maximal. The low end stands for greater potency, the high end for weaker potency. On to `O=C(Cc1ccc(OCCCC2CCN(c3ncc(Cl)cn3)CC2)cc1F)N1CC[C@H](CNC[C@H](O)[C@H](O)[C@H](O)CO)C1` [Example 168, 2-[4-[3-[1-(5-chloropyrimidin-2-yl)-4-piperidyl]propoxy]-2-fluoro-phenyl]-1-[(3R)-3-[[[(2S,3S,4R)-2,3,4,5-tetrahydroxypentyl]amino]methyl]pyrrolidin-1-yl]ethanone], for which the Emax is 100 to 130% and the 50% effective concentration (EC50) was no more than 100 nM.

`O=C(Cc1ccc(OCCCC2CCN(c3ncc(Cl)cn3)CC2)cn1)N1CC(CNC[C@H](O)[C@@H](O)[C@H](O)[C@H](O)CO)C1` [Example 169, 2-[5-[3-[1-(5-chloropyrimidin-2-yl)-4-piperidyl]propoxy]-2-pyridyl]-1-[3-[[[(2S,3R,4R,5R)-2,3,4,5,6-pentahydroxyhexyl]amino]methyl]azetidin-1-yl]ethanone] registered an Emax of 100 to 130% and an EC50 of 1000 to 10000 nM.

The compound `O=C(Cc1ncc(OCCCC2CCN(c3ncc(Cl)cn3)CC2)cc1F)N1CC(CNC[C@H](O)[C@@H](O)[C@H](O)[C@H](O)CO)C1` [Example 170, 2-[5-[3-[1-(5-chloropyrimidin-2-yl)-4-piperidyl]propoxy]-3-fluoro-2-pyridyl]-1-[3-[[[(2S,3R,4R,5R)-2,3,4,5,6-pentahydroxyhexyl]amino]methyl]azetidin-1-yl]ethanone] registered an Emax of 100 to 130% and an EC50 of 100 to 1000 nM.

As for `O=C(NCCS(=O)(=O)O)C1CN(C(=O)Cc2ccc(OCCCC3CCN(c4ncc(Cl)cn4)CC3)cc2F)C1` [Example 171, 2-[[1-[2-[4-[3-[1-(5-chloropyrimidin-2-yl)-4-piperidyl]propoxy]-2-fluoro-phenyl]acetyl]azetidine-3-carbonyl]amino]ethanesulfonic acid], the Emax was 100 to 130% and the EC50 lay within 100 to 1000 nM.

In turn, `O=C(NCCCS(=O)(=O)O)C1CN(C(=O)Cc2ccc(OCCCC3CCN(c4ncc(Cl)cn4)CC3)cc2F)C1` [Example 172, 3-[[1-[2-[4-[3-[1-(5-chloropyrimidin-2-yl)-4-piperidyl]propoxy]-2-fluoro-phenyl]acetyl]azetidine-3-carbonyl]amino]propane-1-sulfonic acid] came in with an Emax of 100 to 130% and a concentration giving a half-maximal response (EC50) of no more than 100 nM.

Compound `O=C(NCCCCS(=O)(=O)O)C1CN(C(=O)Cc2ccc(OCCCC3CCN(c4ncc(Cl)cn4)CC3)cc2F)C1` [Example 173, 4-[[1-[2-[4-[3-[1-(5-chloropyrimidin-2-yl)-4-piperidyl]propoxy]-2-fluoro-phenyl]acetyl]azetidine-3-carbonyl]amino] butane-1-sulfonic acid] came in with an Emax of 100 to 130%.

`O=C(NCCCCCS(=O)(=O)O)C1CN(C(=O)Cc2ccc(OCCCC3CCN(c4ncc(Cl)cn4)CC3)cc2F)C1` [Example 174, 5-[[1-[2-[4-[3-[1-(5-chloropyrimidin-2-yl)-4-piperidyl]propoxy]-2-fluoro-phenyl]acetyl]azetidine-3-carbonyl]amino]pentane-1-sulfonic acid] showed an Emax of 100 to 130% and an EC50 of 100 to 1000 nM.

Take `O=C(NCCCCCCS(=O)(=O)O)C1CN(C(=O)Cc2ccc(OCCCC3CCN(c4ncc(Cl)cn4)CC3)cc2F)C1` [Example 175, 6-[[1-[2-[4-[3-[1-(5-chloropyrimidin-2-yl)-4-piperidyl]propoxy]-2-fluoro-phenyl]acetyl]azetidine-3-carbonyl]amino]hexane-1-sulfonic acid]: the Emax lay within 100 to 130% and the EC50 was 100 to 1000 nM.

For the compound `O=C(CC1CN(C(=O)Cc2ccc(OCCCC3CCN(c4ncc(Cl)cn4)CC3)cc2F)C1)NCCS(=O)(=O)O` [Example 176, 2-[[2-[1-[2-[4-[3-[1-(5-chloropyrimidin-2-yl)-4-piperidyl]propoxy]-2-fluoro-phenyl]acetyl]azetidin-3-yl]acetyl]amino]ethanesulfonic acid], the Emax lay in the range of 100 to 130% and the EC50 was 100 to 1000 nM.

With `O=C(CC1CN(C(=O)Cc2ccc(OCCCC3CCN(c4ncc(Cl)cn4)CC3)cc2F)C1)NCCCS(=O)(=O)O` [Example 177, 3-[[2-[1-[2-[4-[3-[1-(5-chloropyrimidin-2-yl)-4-piperidyl]propoxy]-2-fluoro-phenyl]acetyl]azetidin-3-yl]acetyl]amino]propane-1-sulfonic acid], the Emax was in the range of 100 to 130% and the EC50 is 100 to 1000 nM.

For `O=C(CC1CN(C(=O)Cc2ccc(OCCCC3CCN(c4ncc(Cl)cn4)CC3)cc2F)C1)NCCCCS(=O)(=O)O` [Example 178, 4-[[2-[1-[2-[4-[3-[1-(5-chloropyrimidin-2-yl)-4-piperidyl]propoxy]-2-fluoro-phenyl]acetyl]azetidin-3-yl]acetyl]amino]butane-1-sulfonic acid], the Emax lay within 100 to 130% and the EC50 lay within 100 to 1000 nM.

The compound `O=C(Cc1ccc(OCCCC2CCN(c3ncc(Cl)cn3)CC2)nc1)N1CC(CNC[C@H](O)[C@@H](O)[C@H](O)[C@H](O)CO)C1` [Example 179, 2-[6-[3-[1-(5-chloropyrimidin-2-yl)-4-piperidyl]propoxy]-3-pyridyl]-1-[3-[[[(2S,3R,4R,5R)-2,3,4,5,6-pentahydroxyhexyl]amino]methyl]azetidin-1-yl]ethanone] gave an Emax of 100 to 130% and an EC50 of 1000 to 10000 nM.

In the case of `O=C(Cc1ccc(OCCCC2CCN(c3ncc(Cl)cn3)CC2)cc1F)N1CCC(O)(CNCC(CO)(CO)CO)C1` (centres unmarked) [Example 180, 2-[4-[3-[1-(5-chloropyrimidin-2-yl)-4-piperidyl]propoxy]-2-fluoro-phenyl]-1-[3-hydroxy-3-[[[3-hydroxy-2,2-bis(hydroxymethyl)propyl]amino]methyl]pyrrolidin-1-yl]ethanone], the Emax is 100 to 130% and the EC50 was no more than 100 nM.

Compound `O=C(Cc1ccc(OCCCC2CCN(c3ncc(Cl)cn3)CC2)cc1F)N1CCC(O)(C(=O)NC[C@H](O)[C@@H](O)[C@H](O)[C@H](O)CO)C1` (stereo partly drawn) [Example 181, 1-[2-[4-[3-[1-(5-chloropyrimidin-2-yl)-4-piperidyl]propoxy]-2-fluoro-phenyl]acetyl]-3-hydroxy-N-[(2S,3R,4R,5R)-2,3,4,5,6-pentahydroxyhexyl]pyrrolidine-3-carboxamide] registered an Emax of 100 to 130% and an EC50 of no more than 100 nM.

Regarding `O=C(Cc1ccc(OCCCC2CCN(c3ncc(Cl)cn3)CC2)cc1F)N1CCC(O)(C(=O)NCC(CO)(CO)CO)C1` (centres unmarked) [Example 182, 1-[2-[4-[3-[1-(5-chloropyrimidin-2-yl)-4-piperidyl]propoxy]-2-fluoro-phenyl]acetyl]-3-hydroxy-N-[3-hydroxy-2,2-bis (hydroxymethyl)propyl]pyrrolidine-3-carboxamide], the Emax is 100 to 130% and the EC50 is no more than 100 nM.

`O=C(Cc1ccc(OCCCC2CCN(c3ncc(Cl)cn3)CC2)cc1F)N1CCC(O)(CNCC(CO)(CO)CO)CC1` [Example 183, 2-[4-[3-[1-(5-chloropyrimidin-2-yl)-4-piperidyl]propoxy]-2-fluoro-phenyl]-1-[4-hydroxy-4-[[[3-hydroxy-2,2-bis (hydroxymethyl)propyl]amino]methyl]-1-piperidyl]ethanone] yielded an Emax of 100 to 130% and an EC50 of no more than 100 nM.

On to `O=C(CC1(O)CN(C(=O)Cc2ccc(OCCCC3CCN(c4ncc(Cl)cn4)CC3)cc2F)C1)NCC(CO)(CO)CO` [Example 184, 2-[1-[2-[4-[3-[1-(5-chloropyrimidin-2-yl)-4-piperidyl]propoxy]-2-fluoro-phenyl]acetyl]-3-hydroxy-azetidin-3-yl]-N-[3-hydroxy-2,2-bis(hydroxymethyl)propyl]acetamide], for which the Emax lay in the range of 100 to 130% and the EC50 was no more than 100 nM.

`O=C(Cc1ccc(OCCCC2CCN(c3ncc(Cl)cn3)CC2)cc1F)N1CC(O)(CNC[C@H](O)[C@H](O)[C@H](O)CO)C1` [Example 185, 2-[4-[3-[1-(5-chloropyrimidin-2-yl)-4-piperidyl]propoxy]-2-fluoro-phenyl]-1-[3-hydroxy-3-[[[(2S,3S,4R)-2,3,4,5-tetrahydroxypentyl]amino]methyl]azetidin-1-yl]ethanone] came in with an Emax of 100 to 130% and an EC50 of no more than 100 nM.

On to `O=C(Cc1ccc(OCCCC2CCN(c3ncc(Cl)cn3)CC2)cc1F)N1CCC(O)(CNC[C@H](O)[C@H](O)[C@H](O)CO)C1` (stereo partly drawn) [Example 186, 2-[4-[3-[1-(5-chloropyrimidin-2-yl)-4-piperidyl]propoxy]-2-fluoro-phenyl]-1-[3-hydroxy-3-[[[(2S,3S,4R)-2,3,4,5-tetrahydroxypentyl]amino]methyl]pyrrolidin-1-yl]ethanone], for which the Emax is no less than 130% and the EC50 is no more than 100 nM.

`O=C(Cc1ccc(OCCCC2CCN(c3ncc(Cl)cn3)CC2)cc1F)N1CCC(O)(CNC[C@H](O)[C@H](O)[C@H](O)CO)CC1` [Example 187, 2-[4-[3-[1-(5-chloropyrimidin-2-yl)-4-piperidyl]propoxy]-2-fluoro-phenyl]-1-[4-hydroxy-4-[[[(2S,3S,4R)-2,3,4,5-tetrahydroxypentyl]amino]methyl]-1-piperidyl]ethanone]: the Emax was in the range of 100 to 130% and the EC50 was no more than 100 nM.

`O=C(Cc1c(F)cc(OCCCC2CCN(c3ncc(Cl)cn3)CC2)cc1F)N1CCC(O)(CNCC(CO)(CO)CO)C1` (centres unmarked) [Example 188, 2-[4-[3-[1-(5-chloropyrimidin-2-yl)-4-piperidyl]propoxy]-2,6-difluoro-phenyl]-1-[3-hydroxy-3-[[[3-hydroxy-2,2-bis(hydroxymethyl)propyl]amino]methyl]pyrrolidin-1-yl]ethanone] registered an Emax of 100 to 130% and an EC50 of no more than 100 nM.
